Experimental data reported in patent US7947854B2, “Bis-cationic compounds and use thereof” (The University of Sydney, priority 2003, dated 2011).
Like-named read-outs stand apart in the source and are kept apart here. Marks after values point to notes of the source that are not given here.

Assays:
[1] = test system: Cryptococcus neoformans ATCC 90112; test: Antifungal susceptibility testing, microdilution MIC; type: cell-based; conditions: Cryptococcus neoformans, ATCC90112
How it was run: (§1)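 Standard microdilution method, run in duplicate, using serial dilutions of cationic compounds.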

[2] = test system: Candida albicans ATCC 10231; test: as above; type: cell-based; conditions: Candida albicans, ATCC10231
How it was run: as §1

[3] = test system: secreted phospholipase B (PLB activity); test: Radiometric assay, secreted PLB activity; type: biochemical, Cryptococcus neoformans H99; conditions: for PLB, percentage inhibition of activity: Secretory Cryptococcal H99 Phospholipase; for % Inhibition PLB, Secretory Enzyme: pH 4
How it was run: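 Secreted enzyme was taken from cell-free supernatant of Cryptococcus isolate H99 cells incubated 24 h at 37° C. Reactions at 37° C, pH 4.0 imidazole acetate, used 800 μM DPPC with [14C]-dipalmitoyl PC and 1 μg protein for 22 min. PLB was measured as radiolabelled PC loss by TLC, with inhibition expressed versus inhibitor-free control; compounds were tested at 25 and 250 μM, then 2.5 and 0.25 μM.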

[4] = biological target: T1, Porcine pancreatic phospholipase A2 (Sus scrofa, UniProt P00592); test: Pancreatic phospholipase assay; type: biochemical; conditions: read-out: ppPLA2, percentage inhibition of activity
T1 construct: purchased Sigma, St. Louis MO, USA
Procedure: Pancreatic phospholipase assay. Porcine pancreatic phospholipase A2 suspension in 3.2M ammonium sulfate (2.9 mg protein/mL, Sigma St.Louis Mo., USA) was used. One part of well mixed enzyme suspension was added to 4 parts of buffer (10 mM Tris/HCl, pH 8.2; 10 mM CaCl2. Activity and inhibition by test compounds was then measured by the radiometric method described in Example 2 for fungal PLB activity. However, 25 μL enzyme solution was used, and the reaction time was 1 hour. These conditions result in ˜60% substrate conversion in the inhibitor-free control.

[5] = Table 7, read-out: MIC (μM) Crypto. (ATCC 90112)
[6] = Table 7, read-out: MIC (μM) C. alb. (10231)
[7] = Table 6, no visible growth after 72 h at 35° C., read-out: MIC C. neof. ATCC 90112
[8] = Table 6, no visible growth after 48 h at 35° C., read-out: MIC C. albicans ATCC 10231

T1 sequence (P00592 23-146): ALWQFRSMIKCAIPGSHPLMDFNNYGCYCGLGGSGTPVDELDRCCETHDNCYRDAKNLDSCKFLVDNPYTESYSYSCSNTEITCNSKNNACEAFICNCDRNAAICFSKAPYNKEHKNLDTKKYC

SMILES	MIC [1, 5]	MIC [2, 6]	PLB assay (% inhibition) ([3]; 0.25 μM)	PLB assay (% inhibition) ([3]; 2.5 μM)	PLB assay (% inhibition) ([3]; 25 μM)	PLB assay (% inhibition) ([3]; 250 μM)	inhibition at 0.25 µM [4]	inhibition at 2.5 µM [4]	inhibition at 25 µM [4]	inhibition at 250 µM [4]	MIC [1, 7]	MIC [2, 8]	PLB, percentage inhibition of activity ([3]; 0.25 μM)	PLB, percentage inhibition of activity ([3]; 2.5 μM)	PLB, percentage inhibition of activity ([3]; 25 μM)	PLB, percentage inhibition of activity ([3]; 250 μM)	also measured
CCCC[N+](CCCC)(CCCC)CCCCCCCCCCCC[N+](CCCC)(CCCC)CCCC [1,12-Bis-(tributylammonium)dodecane dichloride]	2.5 µM	5.5 µM	0%	6%	65%	85%											PLB assay (% inhibition) ([3]; 6.7 μM): 35%; PLB assay (% inhibition) ([3]; 12.5 μM): 56%
CCCC[P+](CCCC)(CCCC)CCCCCCCCCCCC[P+](CCCC)(CCCC)CCCC [Compound 1, 1,12-bis(tributylphosphonium)dodecane dibromide]	2.5 µM	8.8 µM	0%	0%	35%	55%	0%	5%	62%	97%	2.5 µM	8.8 µM	0%	0%	35%	55%	% Inhibition PLB, Secretory Enzyme ([3]; 0.25 μM): 0%; % Inhibition PLB, Secretory Enzyme ([3]; 2.5 μM): 0%; % Inhibition PLB, Secretory Enzyme ([3]; 25 μM): 35.2* %; % Inhibition PLB, Secretory Enzyme ([3]; 250 μM): 55.0* %
CCCC[N+](CCCC)(CCCC)CCCCCCCCCCCC[N+](CCCC)(CCCC)CCCC [Compound 3, 1,12-bis(tributylammonium)do-decane dibromide]							0%	0%	36%	86%	2.5 µM	11 µM	20%	65%	80%	85%	
